# Test system: température corporelle, augmentée par l'injection intraveineuse de nucléinate de sodium dans le lapin
# Assay: Antipyretic activity: rise in body temperature induced by intravenous sodium nucleinate
# Type: in vivo
# Conditions: for Augmentation temperature corporelle - °C ± d.s. après 1 heure: 1 heure après l'administration; for Augmentation temperature corporelle - °C ± d.s. après 2 heures: 2 heures après l'administration; for Augmentation temperature corporelle - °C ± d.s. après 3 heures: 3 heures après l'administration; for Augmentation temperature corporelle - °C ± d.s. après 4 heures: 4 heures après l'administration
# Excerpt: L'activité antipyrétique de l'acétylsalicylate de 2(o-méthoxy-phénoxy)éthanol a été evaluée en comparaison avec celle de l'acide acétylsalicylique suivant la méthode, universellement employée, de la mesure de la variation de la température corporelle, augmentée par 1' injection intraveineuse de nucléinate de sodium dans le lapin. Les résultats de l'élaboration statistique des épreuves sont indiqués dans le suivant Tableau 2, dans lequel l'augmentation de la température corporelle est indiquée en °C ± la déviation standard, et a été mesurée 1, 2, 3 et 4 heures après l'administration; pour les autres valeurs est valable ce qui a été spécifié en relation avec le Tableau 1.
smiles,measurement,setting,value
COc1ccccc1OCCOC(=O)c1ccccc1OC(C)=O [acétylsalicylate de 2(o-méthoxy-phénoxy)éthanol],Augmentation temperature corporelle - °C ± d.s. après 1 heure,100 mg/Kg,"1,15 ± 0,19 °C"
same,"inhibition en pour-cent calculée par rapport aux contrôles, après 2 heures",100 mg/Kg,22 pour-cent
same,Augmentation temperature corporelle - °C ± d.s. après 2 heures,100 mg/Kg,"1,13 ± 0,2 °C"
same,"inhibition en pour-cent calculée par rapport aux contrôles, après 3 heures",100 mg/Kg,43 pour-cent
same,Augmentation temperature corporelle - °C ± d.s. après 3 heures,100 mg/Kg,"0,94 ± 0,11 °C"
same,"inhibition en pour-cent calculée par rapport aux contrôles, après 4 heures",100 mg/Kg,56 pour-cent
same,Augmentation temperature corporelle - °C ± d.s. après 4 heures,100 mg/Kg,"0,33 ± 0,07 °C"
same,Augmentation temperature corporelle - °C ± d.s. après 1 heure,200 mg/Kg,"1,1 ± 0,2 °C"
same,"inhibition en pour-cent calculée par rapport aux contrôles, après 2 heures",200 mg/Kg,24 pour-cent
same,Augmentation temperature corporelle - °C ± d.s. après 2 heures,200 mg/Kg,"1,1 ± 0,17 °C"
same,"inhibition en pour-cent calculée par rapport aux contrôles, après 3 heures",200 mg/Kg,47 pour-cent
same,Augmentation temperature corporelle - °C ± d.s. après 3 heures,200 mg/Kg,"0,87 ± 0,15 °C"
same,"inhibition en pour-cent calculée par rapport aux contrôles, après 4 heures",200 mg/Kg,62 pour-cent
same,Augmentation temperature corporelle - °C ± d.s. après 4 heures,200 mg/Kg,"0,28 ± 0,05 °C"

# From patent EP0070049A1, “Derivative of acetylsalicylic acid having an analgetic, antipyretic, antiphlogistic and bronchosecretolytic activity” (UNIONE CHIMICA MEDICAMENTI- DIFME-S.p.A., priority 1981, dated 1983)
